Results on seven test systems are retold here after the supplement of paper PMC6045584.

Compound in one assay: COc1cc2ncnc(Nc3ccc(F)c(Cl)c3)c2cc1OCCCN1CCOCC1 [GEFITINIB]
Description: surviving fraction relative to DMSO-only wells; higher = less growth inhibition. Particulars: exposure time: 5 days. The essentials:
(§1)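 Log-phase tumour cell lines were seeded at 250–500 cells per well in 384-well plates. After 24 hours they were exposed continuously for five days to inhibitors at 0.5, 1, 5, 10, 50, 100, 500 and 1000 nM. Viability was read by CellTiter-Glo luminescence after 10 minutes at room temperature, and surviving fraction is luminescence normalised to the median of DMSO-only wells. Each line was screened three times and kept only if replicate Pearson r >0.7 and median Z' >0.3.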

Compound in assay [1]: CC(=O)c1c(C)c2cnc(Nc3ccc(N4CCNCC4)cn3)nc2n(C2CCCC2)c1=O
The description is as above. The following applies: exposure time: 5 days. The essentials:
as §1

± gives the standard deviation of the averaged measurements.

Turning to NOS1 BONE, the surviving fraction with GEFITINIB (0.5 nM) was determined as 1.1 ± 0.073; in the assay with GEFITINIB (1 nM) it was 1.11 ± 0.032; in the assay with GEFITINIB (5 nM), 1.25 ± 0.23; with GEFITINIB (10 nM), 1.22 ± 0.29; in the assay with GEFITINIB (50 nM) it was 1.17 ± 0.085; in the assay with GEFITINIB (100 nM) it was 1.11 ± 0.046. For the same test system, the surviving fraction was found to be 0.871 ± 0.048 with GEFITINIB (500 nM); 0.754 ± 0.031 with GEFITINIB (1000 nM); 0.935 ± 0.071 in assay [1] (0.5 nM); 0.997 ± 0.15 in assay [1] (1 nM); 1.17 ± 0.086 in assay [1] (5 nM); 0.969 ± 0.053 in assay [1] (10 nM). Moreover, the surviving fraction in assay [1] (50 nM) was found to be 1.07 ± 0.055; in assay [1] (100 nM) it was 1.11 ± 0.034; in assay [1] (500 nM) it was 1.09 ± 0.11; in assay [1] (1000 nM) it was 1.09 ± 0.061.

As to SIHA CERVIX, the surviving fraction with GEFITINIB (0.5 nM) stood at 1.01 ± 0.017; in the assay with GEFITINIB (1 nM), 1.01 ± 0.076; with GEFITINIB (5 nM) it was 1.08 ± 0.053; in the assay with GEFITINIB (10 nM), 1.07 ± 0.091; with GEFITINIB (50 nM), 1.12 ± 0.11; in the assay with GEFITINIB (100 nM), 1.1 ± 0.059. In addition, the surviving fraction with GEFITINIB (500 nM) came to 0.99 ± 0.084; in the assay with GEFITINIB (1000 nM) it was 0.956 ± 0.061; in assay [1] (0.5 nM) it was 1.09 ± 0.085; in assay [1] (1 nM), 1.12 ± 0.087; in assay [1] (5 nM), 1.17 ± 0.11; in assay [1] (10 nM), 1.11 ± 0.041. The surviving fraction in assay [1] (50 nM) is 1.1 ± 0.039; in assay [1] (100 nM), 1.13 ± 0.11; in assay [1] (500 nM), 1.12 ± 0.15; in assay [1] (1000 nM), 1.02 ± 0.067.

As for MG63 BONE, the surviving fraction with GEFITINIB (0.5 nM) was 1.02 ± 0.024; in the assay with GEFITINIB (1 nM), 0.998 ± 0.013; in the assay with GEFITINIB (5 nM), 1.09 ± 0.041; with GEFITINIB (10 nM), 1.08 ± 0.038; with GEFITINIB (50 nM), 1.11 ± 0.046; in the assay with GEFITINIB (100 nM) it was 1.08 ± 0.027. Moreover, the surviving fraction in the assay with GEFITINIB (500 nM) came to 0.999 ± 0.033; with GEFITINIB (1000 nM) it was 1.01 ± 0.033; in assay [1] (0.5 nM) it was 1.033 ± 0.0085; in assay [1] (1 nM), 1.01 ± 0.044; in assay [1] (5 nM), 1.039 ± 0.0042; in assay [1] (10 nM), 1.04 ± 0.021. Moreover, the surviving fraction in assay [1] (50 nM) was determined as 1.07 ± 0.035; in assay [1] (100 nM), 1.07 ± 0.031; in assay [1] (500 nM) it was 0.914 ± 0.02; in assay [1] (1000 nM), 0.868 ± 0.034.

Take RDES SOFT TISSUE: the surviving fraction in the assay with GEFITINIB (0.5 nM) came out at 1.07 ± 0.13; with GEFITINIB (1 nM), 1.06 ± 0.15; with GEFITINIB (5 nM), 1.05 ± 0.058; with GEFITINIB (10 nM), 1.17 ± 0.079; in the assay with GEFITINIB (50 nM), 1.03 ± 0.26; in the assay with GEFITINIB (100 nM), 1.22 ± 0.12. Also, the surviving fraction with GEFITINIB (500 nM) turned out to be 1.16 ± 0.19; in the assay with GEFITINIB (1000 nM), 1.2 ± 0.14; in assay [1] (0.5 nM), 1.27 ± 0.17; in assay [1] (1 nM) it was 1.18 ± 0.037; in assay [1] (5 nM), 1.23 ± 0.067; in assay [1] (10 nM), 1.02 ± 0.19. For the same test system, the surviving fraction in assay [1] (50 nM) amounted to 1.02 ± 0.24; in assay [1] (100 nM), 1.02 ± 0.21; in assay [1] (500 nM), 1.67 ± 0.18; in assay [1] (1000 nM) it was 1.57 ± 0.2.

In the case of HCC38 BREAST, the surviving fraction worked out at 1.05 ± 0.086 with GEFITINIB (0.5 nM); 1.33 ± 0.089 with GEFITINIB (1 nM); 1.25 ± 0.17 with GEFITINIB (5 nM); 1.24 ± 0.1 with GEFITINIB (10 nM); 1.23 ± 0.13 in the assay with GEFITINIB (50 nM); 1.29 ± 0.03 in the assay with GEFITINIB (100 nM). Also, the surviving fraction in the assay with GEFITINIB (500 nM) was 1.1 ± 0.096; with GEFITINIB (1000 nM), 1.18 ± 0.053; in assay [1] (0.5 nM), 1.11 ± 0.12; in assay [1] (1 nM), 1.22 ± 0.16; in assay [1] (5 nM), 1.23 ± 0.036; in assay [1] (10 nM), 1.19 ± 0.14. The surviving fraction in assay [1] (50 nM) came out at 1.21 ± 0.15; in assay [1] (100 nM), 1.09 ± 0.096; in assay [1] (500 nM), 1.28 ± 0.12; in assay [1] (1000 nM), 1.24 ± 0.11.

Take MFM223 BREAST: the surviving fraction with GEFITINIB (0.5 nM) amounted to 1.49 ± 0.61; with GEFITINIB (1 nM), 1.42 ± 0.47; in the assay with GEFITINIB (5 nM) it was 1.51 ± 0.61; with GEFITINIB (10 nM) it was 1.5 ± 0.53; in the assay with GEFITINIB (50 nM) it was 1.19 ± 0.058; with GEFITINIB (100 nM), 1.19 ± 0.092. Moreover, the surviving fraction was determined as 1.12 ± 0.035 with GEFITINIB (500 nM); 1.14 ± 0.07 with GEFITINIB (1000 nM); 1.17 ± 0.042 in assay [1] (0.5 nM); 1.13 ± 0.078 in assay [1] (1 nM); 1.16 ± 0.11 in assay [1] (5 nM); 1.19 ± 0.062 in assay [1] (10 nM). Besides, the surviving fraction came out at 1.15 ± 0.14 in assay [1] (50 nM), 1.15 ± 0.1 in assay [1] (100 nM), 1.09 ± 0.031 in assay [1] (500 nM) and 1.03 ± 0.064 in assay [1] (1000 nM).

With CHLA90 AUTONOMIC GANGLIA, the surviving fraction with GEFITINIB (0.5 nM) is 0.939 ± 0.022; in the assay with GEFITINIB (1 nM), 0.905 ± 0.089; in the assay with GEFITINIB (5 nM), 0.873 ± 0.052; with GEFITINIB (10 nM), 0.848 ± 0.056; with GEFITINIB (50 nM), 0.902 ± 0.069; in the assay with GEFITINIB (100 nM), 0.876 ± 0.041. In addition, the surviving fraction with GEFITINIB (500 nM) stood at 0.881 ± 0.044; in the assay with GEFITINIB (1000 nM) it was 0.801 ± 0.066; in assay [1] (0.5 nM) it was 1.04 ± 0.067; in assay [1] (1 nM), 1.06 ± 0.02; in assay [1] (5 nM), 1.04 ± 0.075; in assay [1] (10 nM), 1.01 ± 0.055. Further, the surviving fraction in assay [1] (50 nM) came to 0.934 ± 0.013; in assay [1] (100 nM), 0.95 ± 0.035; in assay [1] (500 nM), 0.839 ± 0.053; in assay [1] (1000 nM) it was 0.687 ± 0.015.
